Structures are written as SMILES. “And” between values parts separate entries of the source, which are not always exact repeats. Equal values may be shown once.

In the assay the test system is 349418-098-R-PDC complex spheroid viability. Nature of the assay: Anticancer human tumor 349418-098-R-PDC patient-derived lung adenocarcinoma cell line growth inhibition. Particulars: for viability, T/C: stronger effect = lower value; for IC50: curve of compound. From the text:
Multicellular complex tumor spheroid response to LSD1 Inhibitor Iadademstat in combination with a variety of drugs and investigational agents in selected tumor cell lines
The current study was undertaken to assess response to LSD1 inhibitors in combination with standard-of-care drugs and investigational agents in solid tumor complex spheroid models as well as in the K-562 leukemia. Complex spheroids include a stromal component modeled by human endothelial cells (HUVEC) and fibroblasts modeled by human mesenchymal stem cells (MSCs). The concentration ranges selected for each drug and investigational agent were based upon clinically achievable concentrations if the clinical Cmax of the agent was known.
Compounds. The drugs and investigational agents used in this study are listed on Table 1. All of the agents used, including staurosporine (NSC755774) and gemcitabine (NSC613327), were obtained from the Developmental Therapeutics Program, NCI. FDA-approved anticancer drugs are available from the NCI at http://dtp.nci.nih.gov/branches/dscb/oncology_drugset_explanation.html. Drugs and investigational agents were >95% pure by proton nuclear magnetic resonance (NMR) and liquid chromatography/mass spectrometry (LC/MS). Stock solutions were prepared at 400x in DMSO, stored at -70 degrees C, and diluted in fresh medium prior to their use. The final concentration of DMSO in cell culture wells never exceeded 0.25% (v/v). The FDA-approved anticancer drug set is available from the Developmental Therapeutics Program at https://dtp.cancer.gov/organization/dscb/obtaining/available_plates.htm. All drugs and investigational agents were tested over a range starting from a high concentration at or near the clinical Cmax and decreasing in half-log increments. If the clinical Cmax for an agent had not been determined, the highest concentration tested was 10 microM.
Cell Lines. The patient-derived cancer cell (PDC) lines: 292921-168-R-J2-PDC, K24384-001-R-PDC, and 521955-158-R2-J5-PDC pancreatic carcinomas, 556581-035-R-J1 ovarian carcinoma, 324938-238-R-J1-PDC, 855422-203-R-J1-PDC and 883617-216-R-J1-PDC urothelial bladder carcinomas, 743489-274-T-PDC renal cell carcinoma, 138582-R-J1 Merkel cell tumor, K60290-347-R-J1 and K57222-313-R-J1-PDC glioblastomas, 653999-131-R-J2-PDC, LG0703-F948-PDC, and 349418-098-R-PDC non-small cell lung carcinomas, 885512-296-R-J2-PDC, 171881-019-R-J1-PDC breast carcinomas and 186277-243-T-J2-PDC and 233499-124-R-J2-PDC colon carcinomas were obtained from the NCI Patient-Derived Models Repository (PDMR, https://pdmr.cancer.gov). The established cell lines NCI/ADR-RES (RRID:CVCL_14520 and OVCAR-5 (RRID:CVCL_1628) ovarian carcinomas, 786-O (RRID:CVCL_1051) and A498 (RRID:CVCL_A498) renal cell carcinoma, NCI-H211 (ATCC, cat. CRL-5824; RRID:CVCL_1529), NCI-H196 (ATCC, cat. CRL-5823, RRID:CVCL_1509), SW 1271 (ATCC, cat. CRL-2177, RRID:CVCL_1716) and NCI-H1876 (ATCC, cat. CRL-5902, RRID:CVCL_1503) small cell lung carcinomas, MDA-MB-231 (RRID:CVCL_0062) and MDA-MB-468 (RRID:CVCL_0419)breast carcinomas (10-12). Pooled donor human umbilical vein endothelial cells (HUVEC, Lonza, cat. CC-2519) and human mesenchymal stem cells (hMSC, Lonza, cat. PT-2501) were purchased from Lonza (Walkersville, MD).
Cell Culture. All cells were maintained in an incubator at 37 degrees C and 5% CO2 with 95% humidity. The PDC lines were cultured according to standard operating procedures established by the NCI PDMR (https://pdmr.cancer.gov). Briefly all PDCs were thawed and cultured in Matrigel-coated flasks prepared with a working solution of 1X Ham's F-12 nutrient mix, without supplementation (Invitrogen, Waltham, MA, cat. 11765054), 100 U/mL penicillin-streptomycin (Invitrogen, cat. 15140122), and 2.5% Matrigel (Corning Inc., Corning, NY, cat. 354248) for the first three passages. […]
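Also: spheroids exposed to agents for seven days before readout.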
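For viability, T/C in this document: 100% = DMSO vehicle control wells.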

On to `CC(C)CC(NC(=O)C(Cc1ccccc1)NC(=O)c1cnccn1)B(O)O` (configuration not stated), for which the IC50 was below 0.316 nM. Besides, the viability, T/C (compound 0.000316 µM) is 9.44% and 1.92%. For the same compound, for the setting “compound 0.001 µM”, the viability, T/C is 1.9% and 1.46%. For the same compound, under “compound 0.00316 µM”, the viability, T/C was 1.14% and 0.84%. The viability, T/C (compound 0.01 µM) is 0.78% and 0.64%. Further, the viability, T/C (compound 0.0316 µM) is 0.63% and 0.42%. Besides, the viability, T/C (compound 0.1 µM) was 0.67% and 0.41%.
With `CC(C)CC(NC(=O)CNC(=O)c1cc(Cl)ccc1Cl)B1OC(=O)CC(CC(=O)O)(C(=O)O)O1` (configuration not stated), the concentration for half-maximal inhibition (IC50) was 0.633 nM and 0.818 nM. Further, the viability, T/C (compound 0.000316 µM) is 88.8% and 103%. In addition, where the note is “compound 0.001 µM”, the viability, T/C was 24.5% and 38.9%. The viability, T/C (compound 0.00316 µM) was 4.47% and 4.31%. In addition, the viability, T/C (compound 0.01 µM) was 2.14% and 2%. Besides, the viability, T/C (compound 0.0316 µM) was 1.69% and 1.05%. Moreover, where the note is “compound 0.1 µM”, the viability, T/C is 1.35% and 1.12%.
Take `CC1COCCN1c1cc(-c2ccnn2C)c2ccnc(-c3ccn[nH]3)c2n1` (configuration not stated): the IC50 is 13.2 nM and < 3.16 nM. Further, the viability, T/C (compound 0.00316 µM) is 104% and 25.4%. Where the note is “compound 0.01 µM”, the viability, T/C is 61.4% and 14.9%. The viability, T/C (compound 0.0316 µM) was 14.5% and 8.01%. The viability, T/C (compound 0.1 µM) was 8.8% and 6.27%. The viability, T/C (compound 0.316 µM) is 7.72% and 5.55%. Further, the viability, T/C (compound 1 µM) was 5.78% and 4.24%.
`CC[C@@]1(O)C(=O)OCc2c1cc1n(c2=O)Cc2cc3c(CN(C)C)c(O)ccc3nc2-1`: the IC50 was 2.16 nM and 2.74 nM. For the same compound, for the setting “compound 0.000316 µM”, the viability, T/C was 105% and 95.3%. The viability, T/C (compound 0.001 µM) was 84.7% and 94.4%. Besides, the viability, T/C (compound 0.00316 µM) was 32.5% and 43.5%. Further, under “compound 0.01 µM”, the viability, T/C was 10.2% and 9.41%. Also, the viability, T/C (compound 0.0316 µM) is 6.03% and 5.47%. Besides, the viability, T/C (compound 0.1 µM) is 3.25% and 3.14%.
Consider `CCc1c2c(nc3ccc(O)cc13)-c1cc3c(c(=O)n1C2)COC(=O)[C@]3(O)CC`, for which the 50% inhibitory concentration (IC50) was below 0.949 nM. In addition, the viability, T/C (compound 0.000949 µM) was 4.32% and 3.69%. For the setting “compound 0.003 µM”, the viability, T/C was 2.63% and 2.24%. For the same compound, the viability, T/C (compound 0.00949 µM) is 1.82% and 1.28%. The viability, T/C (compound 0.03 µM) is 1.29% and 1.41%. For the same compound, the viability, T/C (compound 0.0949 µM) was 1.48% and 2.01%. In addition, the viability, T/C (compound 0.3 µM) is 1.75% and 2.19%.
For the compound `COc1cc(Nc2ncc3c(n2)-c2ccc(Cl)cc2C(c2c(F)cccc2OC)=NC3)ccc1C(=O)O`, the IC50 is 17.5 nM and 6.2 nM. Also, the viability, T/C (compound 0.00316 µM) was 81.5% and 59.7%. Further, the viability, T/C (compound 0.01 µM) is 63.8% and 43.1%. Further, the viability, T/C (compound 0.0316 µM) was 35.4% and 41.2%. Besides, the viability, T/C (compound 0.1 µM) is 40.7% and 45.3%. Moreover, the viability, T/C (compound 0.316 µM) was 31.1% and 40.4%. Further, the viability, T/C (compound 1 µM) was 31.7% and 39.1%.
In the case of `Cn1ncnc1C1c2n[nH]c(=O)c3cc(F)cc(c23)NC1c1ccc(F)cc1` (configuration not stated), the half-inhibitory concentration (IC50) was above 100 nM. The viability, T/C (compound 0.000316 µM) is 97.2% and 97.6%. Further, the viability, T/C (compound 0.001 µM) is 93.6% and 102%. In addition, the viability, T/C (compound 0.00316 µM) is 101% and 98.2%. The viability, T/C (compound 0.01 µM) was 94.4% and 94.1%. In addition, the viability, T/C (compound 0.0316 µM) is 97.8% and 78.5%. Under “compound 0.1 µM”, the viability, T/C is 89% and 77.8%.
Take `Nc1ccn(C2OC(CO)C(O)C2(F)F)c(=O)n1` (configuration not stated): the concentration for half-maximal inhibition (IC50) was below 0.949 nM. Besides, the viability, T/C (compound 0.000949 µM) is 5.35% and 15%. Moreover, the viability, T/C (compound 0.003 µM) was 5.18% and 4.23%. For the same compound, where the note is “compound 0.00949 µM”, the viability, T/C was 4.99% and 4.4%. Further, the viability, T/C (compound 0.03 µM) was 4% and 4.8%. In addition, the viability, T/C (compound 0.0949 µM) was 4.25% and 4.46%. For the same compound, where the note is “compound 0.3 µM”, the viability, T/C is 4.05% and 4.24%.
In the case of `Nc1ncn(C2CC(O)C(CO)O2)c(=O)n1` (configuration not stated), the concentration for half-maximal inhibition (IC50) was 21.3 nM and 89.3 nM. Moreover, the viability, T/C (compound 0.00316 µM) is 88.2% and 96.1%. In addition, the viability, T/C (compound 0.01 µM) is 59% and 91.5%. The viability, T/C (compound 0.0316 µM) is 47.1% and 75.4%. Further, the viability, T/C (compound 0.1 µM) is 32.5% and 45.5%. Further, the viability, T/C (compound 0.316 µM) was 27.8% and 37.1%. The viability, T/C (compound 1 µM) is 23.9% and 27.6%.
`Nc1ncn(C2CC(O)C(CO)S2)c(=O)n1` (configuration not stated): the half-maximal inhibitory concentration (IC50) is 15.8 nM and 15.5 nM. In addition, the viability, T/C (compound 0.000949 µM) was 104% and 92.4%. Further, the viability, T/C (compound 0.003 µM) was 84% and 91.7%. Besides, the viability, T/C (compound 0.00949 µM) is 64.8% and 63.6%. The viability, T/C (compound 0.03 µM) was 33.8% and 29.8%. Further, the viability, T/C (compound 0.0949 µM) was 16.8% and 11.8%. Also, the viability, T/C (compound 0.3 µM) is 8.91% and 5.28%.
For the compound `O=C(C=Cn1cnc(-c2cc(C(F)(F)F)cc(C(F)(F)F)c2)n1)NNc1cnccn1`, the IC50 was below 3.16 nM. Further, the viability, T/C (compound 0.00316 µM) was 19.9% and 22.1%. In addition, the viability, T/C (compound 0.01 µM) is 8.55% and 22.4%. The viability, T/C (compound 0.0316 µM) was 6.32% and 7.96%. The viability, T/C (compound 0.1 µM) is 3.87% and 4.72%. The viability, T/C (compound 0.316 µM) is 2.92% and 3.05%. In addition, the viability, T/C (compound 1 µM) was 2.37% and 2.41%.

Values taken from PubChem BioAssay AID1918936 (Molecular Pharmacology Branch, DTP, NCI, 2023).
